Measurements reported in ChEMBL document CHEMBL4190322, “Structure-based development of novel triazoles and related thiazolotriazoles as anticancer agents and Cdc25A/B phosphatase inhibitors. Synthesis, in vitro biological evaluation, molecular docking and in silico ADME-T studies” (Eur J Med Chem, 2017).
Calls of active or inactive are those of the source. The calls are words filed in the database; no cut-off is given here.

Tests used:
CAKI-1 = test: Growth inhibition of human Caki1 cells at 10 uM after 48 hrs by SRB assay relative to control; assay type: functional; conditions: CAKI-1, 48 h, read-out: GI
SNB-19 = test: Growth inhibition of human SNB19 cells at 10 uM after 48 hrs by SRB assay relative to control; assay type: functional
NCI-H23 = test: Growth inhibition of human NCI-H23 cells at 10 uM after 48 hrs by SRB assay relative to control; assay type: functional; conditions: NCI-H23, 48 h, read-out: GI
SK-MEL-5 = test: Growth inhibition of human SK-MEL-5 cells at 10 uM after 48 hrs by SRB assay relative to control; assay type: functional; conditions: SK-MEL-5, 48 h, read-out: GI
HOP-92 = test: Growth inhibition of human HOP92 cells at 10 uM after 48 hrs by SRB assay relative to control; assay type: functional; conditions: HOP-92, 48 h, read-out: GI
786-0 = test: Growth inhibition of human 786-0 cells at 10 uM after 48 hrs by SRB assay relative to control; assay type: functional
MDA-MB-468 = test: Growth inhibition of human MDA-MB-468 cells at 10 uM after 48 hrs by SRB assay relative to control; assay type: functional; conditions: MDA-MB-468, 48 h, read-out: GI
NCI-H226 = test: Growth inhibition of human NCI-H226 cells at 10 uM after 48 hrs by SRB assay relative to control; assay type: functional; conditions: NCI-H226, 48 h, read-out: GI
HOP-62 = test: Growth inhibition of human HOP62 cells at 10 uM after 48 hrs by SRB assay relative to control; assay type: functional; conditions: HOP-62, 48 h, read-out: GI
SF-268 = test: Growth inhibition of human SF268 cells at 10 uM after 48 hrs by SRB assay relative to control; assay type: functional; conditions: SF-268, 48 h, read-out: GI
HT-29 = test: Growth inhibition of human HT-29 cells at 10 uM after 48 hrs by SRB assay relative to control; assay type: functional; conditions: HT-29, 48 h, read-out: GI
SNB-75 = test: Growth inhibition of human SNB75 cells at 10 uM after 48 hrs by SRB assay relative to control; assay type: functional; conditions: SNB-75, 48 h, read-out: GI
A498 = test: Growth inhibition of human A498 cells at 10 uM after 48 hrs by SRB assay relative to control; assay type: functional; conditions: A498, 48 h, read-out: GI
OVCAR-8 = test: Growth inhibition of human OVCAR8 cells at 10 uM after 48 hrs by SRB assay relative to control; assay type: functional
[1] = biological target: T1, M-phase inducer phosphatase 2 (Homo sapiens, UniProt P30305); test: Inhibition of human CDC25B using OMFP as substrate after 15 mins by fluorescence assay
T1 sequence (P30305 whole entry): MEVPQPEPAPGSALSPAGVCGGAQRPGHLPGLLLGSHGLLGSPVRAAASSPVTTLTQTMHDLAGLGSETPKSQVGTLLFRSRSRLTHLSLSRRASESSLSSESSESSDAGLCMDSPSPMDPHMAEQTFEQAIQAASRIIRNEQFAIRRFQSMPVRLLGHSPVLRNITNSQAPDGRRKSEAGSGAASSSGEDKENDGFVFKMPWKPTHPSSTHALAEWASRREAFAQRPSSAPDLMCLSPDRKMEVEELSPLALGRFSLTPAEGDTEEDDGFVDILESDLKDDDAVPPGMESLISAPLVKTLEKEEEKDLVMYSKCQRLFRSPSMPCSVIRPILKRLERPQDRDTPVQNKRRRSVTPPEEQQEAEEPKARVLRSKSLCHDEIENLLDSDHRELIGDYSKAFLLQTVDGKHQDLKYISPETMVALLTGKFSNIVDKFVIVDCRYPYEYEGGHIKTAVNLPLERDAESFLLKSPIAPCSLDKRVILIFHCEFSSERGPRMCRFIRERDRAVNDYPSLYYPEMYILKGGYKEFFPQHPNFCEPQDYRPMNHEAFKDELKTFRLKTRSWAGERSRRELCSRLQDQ

HL-60 = test: Growth inhibition of human HL60 cells at 10 uM after 48 hrs by SRB assay relative to control; assay type: functional
RXF 393 = test: Growth inhibition of human RXF393 cells at 10 uM after 48 hrs by SRB assay relative to control; assay type: functional
Malme-3M = test: Growth inhibition of human MALME-3M cells at 10 uM after 48 hrs by SRB assay relative to control; assay type: functional; conditions: read-out: GI
UO-31 = test: Growth inhibition of human UO31 cells at 10 uM after 48 hrs by SRB assay relative to control; assay type: functional; conditions: UO-31, 48 h, read-out: GI
SR = test: Growth inhibition of human SR cells at 10 uM after 48 hrs by SRB assay relative to control; assay type: functional; conditions: read-out: GI
HCT-116 = test: Growth inhibition of human HCT116 cells at 10 uM after 48 hrs by SRB assay relative to control; assay type: functional
NCI-H322M = test: Growth inhibition of human NCI-H322M cells at 10 uM after 48 hrs by SRB assay relative to control; assay type: functional; conditions: read-out: GI
CCRF-CEM = test: Growth inhibition of human CCRF-CEM cells at 10 uM after 48 hrs by SRB assay relative to control; assay type: functional; conditions: read-out: GI
OVCAR-3 = test: Growth inhibition of human OVCAR3 cells at 10 uM after 48 hrs by SRB assay relative to control; assay type: functional; conditions: OVCAR-3, 48 h, read-out: GI
A549 = test: Growth inhibition of human A549 cells at 10 uM after 48 hrs by SRB assay relative to control; assay type: functional; conditions: A549, 48 h, read-out: GI
OVCAR-4 = test: Growth inhibition of human OVCAR4 cells at 10 uM after 48 hrs by SRB assay relative to control; assay type: functional; conditions: OVCAR-4, 48 h, read-out: GI
SK-MEL-2 = test: Growth inhibition of human SK-MEL-2 cells at 10 uM after 48 hrs by SRB assay relative to control; assay type: functional; conditions: SK-MEL-2, 48 h, read-out: GI
NCI-H522 = test: Growth inhibition of human NCI-H522 cells at 10 uM after 48 hrs by SRB assay relative to control; assay type: functional; conditions: NCI-H522, 48 h, read-out: GI
RPMI-8226 = test: Growth inhibition of human RPMI8226 cells at 10 uM after 48 hrs by SRB assay relative to control; assay type: functional; conditions: RPMI-8226, 48 h, read-out: GI
U-251 = test: Growth inhibition of human U251 cells at 10 uM after 48 hrs by SRB assay relative to control; assay type: functional; conditions: U-251, 48 h, read-out: GI
Hs-578T = test: Growth inhibition of human Hs 578T cells at 10 uM after 48 hrs by SRB assay relative to control; assay type: functional
MOLT-4 = test: Growth inhibition of human MOLT4 cells at 10 uM after 48 hrs by SRB assay relative to control; assay type: functional; conditions: MOLT-4, 48 h, read-out: GI

COc1ccc(Cc2nnc(SCC(=O)c3ccc(Cl)cc3)n2-c2ccc(C)cc2)cc1
inhibition of growth at 10 µM (CAKI-1): 6.12%
growth inhibition (GI) (SNB-19): inactive
inhibition of growth at 10 µM (NCI-H23): 5.6%
inhibition of growth at 10 µM (SK-MEL-5): 1.52%
inhibition of growth at 10 µM (HOP-92): 36.9%
growth inhibition (GI) (786-0): inactive
inhibition of growth at 10 µM (MDA-MB-468): 11%
inhibition of growth at 10 µM (NCI-H226): 3%
inhibition of growth at 10 µM (HOP-62): 11.7%
inhibition of growth at 10 µM (SF-268): 1.22%
inhibition of growth at 10 µM (HT-29): 4.07%
inhibition of growth at 10 µM (SNB-75): 11.4%
inhibition of growth at 10 µM (A498): 46%
inhibition of growth at 10 µM (OVCAR-8; OVCAR-8, 48 h, read-out: GI): 1.7%
IC50 [1]: 17.3 µM
inhibition of growth at 10 µM (HL-60; HL-60, 48 h, read-out: GI): 26.4%
growth inhibition (GI) (RXF 393): inactive
inhibition of growth at 10 µM (Malme-3M): 12%
inhibition of growth at 10 µM (UO-31): 14%
inhibition of growth at 10 µM (SR): 20%
growth inhibition (GI) (HCT-116): inactive
inhibition of growth at 10 µM (NCI-H322M): 4%
inhibition of growth at 10 µM (CCRF-CEM): 23%
inhibition of growth at 10 µM (OVCAR-3): 4.28%
inhibition of growth at 10 µM (A549): 4.54%
inhibition of growth at 10 µM (OVCAR-4): 18.6%
inhibition of growth at 10 µM (SK-MEL-2): 10%
inhibition of growth at 10 µM (NCI-H522): 23%
inhibition of growth at 10 µM (RPMI-8226): 25%
inhibition of growth at 10 µM (U-251): 10.4%
growth inhibition (GI) (Hs-578T): inactive
inhibition of growth at 10 µM (MOLT-4): 32.7%

COc1ccc(Cc2nnc(SCC(=O)c3ccc(Cl)cc3)n2-c2ccccc2)cc1
inhibition of growth at 10 µM (CAKI-1): 13.5%
inhibition of growth at 10 µM (SNB-19; SNB-19, 48 h, read-out: GI): 5%
inhibition of growth at 10 µM (NCI-H23): 8.1%
inhibition of growth at 10 µM (SK-MEL-5): 7%
inhibition of growth at 10 µM (HOP-92): 24.1%
inhibition of growth at 10 µM (786-0; 786-0, 48 h, read-out: GI): 7.77%
inhibition of growth at 10 µM (MDA-MB-468): 8.55%
inhibition of growth at 10 µM (NCI-H226): 4%
inhibition of growth at 10 µM (HOP-62): 1.26%
inhibition of growth at 10 µM (SF-268): 3.38%
inhibition of growth at 10 µM (HT-29): 2.08%
inhibition of growth at 10 µM (SNB-75): 12.8%
inhibition of growth at 10 µM (A498): 24.5%
growth inhibition (GI) (OVCAR-8): inactive
IC50 [1]: 20.1 µM
growth inhibition (GI) (HL-60): inactive
inhibition of growth at 10 µM (RXF 393; RXF 393, 48 h, read-out: GI): 2%
inhibition of growth at 10 µM (Malme-3M): 16.9%
inhibition of growth at 10 µM (UO-31): 20.1%
inhibition of growth at 10 µM (SR): 24.1%
growth inhibition (GI) (HCT-116): inactive
inhibition of growth at 10 µM (NCI-H322M): 8.4%
inhibition of growth at 10 µM (CCRF-CEM): 7.71%
inhibition of growth at 10 µM (OVCAR-3): 4.64%
inhibition of growth at 10 µM (A549): 4.57%
inhibition of growth at 10 µM (OVCAR-4): 22%
inhibition of growth at 10 µM (SK-MEL-2): 11.5%
inhibition of growth at 10 µM (NCI-H522): 21%
inhibition of growth at 10 µM (RPMI-8226): 13.7%
inhibition of growth at 10 µM (U-251): 10.1%
inhibition of growth at 10 µM (Hs-578T; read-out: GI): 3.43%
inhibition of growth at 10 µM (MOLT-4): 24%
